According to patent US12018021B2 (UCB Biopharma SRL, priority 2018, dated 2024):

Target: IgE-Tb / sFcεRIα-Y131A-AF488 (Homo sapiens, UniProt P01854, N146Q/N252Q)
Assay: IgE-Tb / sFcεRIα-Y131A-AF488 FRET assay (protocol for examples 234 to 501)
Assay type: binding
Settings: examples 234 to 501: compound with IgE-Tb 30 minutes before sFcεRIα-Y131A-AF488, incubated 18 hours at room temperature; read-out: Y131A FRET IC50 range
How it was run: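 Compounds (10-point 3-fold series, top usually 10 μM, 2% DMSO) preincubated 30 min with 5 nM IgE-Tb, then 25 nM sFcεRIα-Y131A-AF488 added; 18 h at room temperature in the dark. TR-FRET ratio 520/490 nm after 337 nm excitation, background-subtracted; IC50 by four-parameter logistic fit.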

Sequence of IgE-Tb / sFcεRIα-Y131A-AF488 (P01854 whole entry N146Q/N252Q): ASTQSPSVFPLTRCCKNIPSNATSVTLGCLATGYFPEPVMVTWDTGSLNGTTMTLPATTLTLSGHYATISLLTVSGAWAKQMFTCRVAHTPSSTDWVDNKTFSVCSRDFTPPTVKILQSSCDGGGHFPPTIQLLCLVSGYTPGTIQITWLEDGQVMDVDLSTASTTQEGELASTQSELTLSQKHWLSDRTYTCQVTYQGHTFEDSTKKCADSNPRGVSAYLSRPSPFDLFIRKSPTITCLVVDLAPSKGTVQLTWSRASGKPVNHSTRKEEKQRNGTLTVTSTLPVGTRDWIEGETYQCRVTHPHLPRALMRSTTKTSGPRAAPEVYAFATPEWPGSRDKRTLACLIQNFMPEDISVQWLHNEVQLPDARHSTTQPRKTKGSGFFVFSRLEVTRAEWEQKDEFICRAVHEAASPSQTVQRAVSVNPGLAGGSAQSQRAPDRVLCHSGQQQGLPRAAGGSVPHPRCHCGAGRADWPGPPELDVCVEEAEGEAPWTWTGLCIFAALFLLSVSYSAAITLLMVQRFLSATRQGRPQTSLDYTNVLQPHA

O=C1CC(Nc2nncn2[C@H]2CCc3sc(NC(=O)C4CC4)c(C(=O)NCC4CC4)c3C2)CN1 (single isomer, unassigned) [Example 271, (5S)-2-(cyclopropanecarbonylamino)-N-(cyclopropylmethyl)-5-[3-[[(3R*)-5-oxopyrrolidin-3-yl]amino]-1,2,4-triazol-4-yl]-4,5,6,7-tetrahydrobenzothiophene-3-carboxamide]
IC50: < 1000 nM

C[C@H]1C[C@@H]1C(=O)Nc1sc2c(c1C(=O)NC[C@@H]1C[C@@H]1F)C[C@@H](n1cnnc1Nc1cc(C(F)F)nn1C)CC2 [Example 435, (5S)-5-[3-[[5-(difluoromethyl)-2-methylpyrazol-3-yl]amino]-1,2,4-triazol-4-yl]-N-[[(1S,2S)-2-fluorocyclopropyl]methyl]-2-[[(1S,2S)-2-methylcyclopropanecarbonyl]amino]-4,5,6,7-tetrahydro-1-benzothiophene-3-carboxamide]
IC50: < 1000 nM

Cn1nc(C(F)F)cc1Nc1nncn1[C@H]1CCc2sc(NC(=O)C3CC3)c(C(=O)NCC3CC34CC4)c2C1 (mixture of isomers) [Example 384, (5S)-2-(cyclopropanecarbonylamino)-5-[3-[[5-(difluoromethyl)-2-methylpyrazol-3-yl]amino]-1,2,4-triazol-4-yl]-N-(spiro[2.2]pentan-2-ylmethyl)-4,5,6,7-tetrahydro-1-benzothiophene-3-carboxamide]
IC50: < 1000 nM

Cn1nc(OC(F)F)cc1Nc1nncn1[C@H]1CCc2sc(NC(=O)C3CC(F)(F)C3)c(C(=O)NC[C@@H]3C[C@@H]3F)c2C1 [Example 490, (5S)-2-[(3,3-difluorocyclobutanecarbonyl)amino]-5-[3-[[5-(difluoromethoxy)-2-methylpyrazol-3-yl]amino]-1,2,4-triazol-4-yl]-N-[[(1S,2S)-2-fluorocyclopropyl]methyl]-4,5,6,7-tetrahydro-1-benzothiophene-3-carboxamide]
IC50: < 1000 nM

Cc1ncc(C#N)cc1Nc1nncn1[C@H]1CCc2sc(NC(=O)C3CC3)c(C(=O)NCC3CC3)c2C1 [Example 299, (5S)-5-[3-[(5-cyano-2-methyl-3-pyridyl)amino]-1,2,4-triazo-4-yl]-2-(cyclopropanecarbonylamino)-N-(cyclopropylmethyl)-4,5,6,7-tetrahydrobenzothiophene-3-carboxamide]
IC50: < 1000 nM

Cn1nc(OC(F)F)cc1Nc1nncn1[C@H]1CCc2sc(NC(=O)C3CC3(F)F)c(C(=O)NC[C@@H]3C[C@@H]3F)c2C1 (single isomer, unassigned) [Example 281, (5S)-2-[[(1S*)-2,2-difluorocyclopropanecarbonyl]amino]-5-[3-[[5-(difluoromethoxy)-2-methyl-pyrazol-3-yl]amino]-1,2,4-triazol-4-yl]-N-[[(1S,2S)-2-fluorocyclopropyl]methyl]-4,5,6,7-tetrahydrobenzothiophene-3-carboxamide]
IC50: < 1000 nM

Cn1nc(OC(F)F)cc1Nc1nncn1[C@H]1CCc2sc(NC(=O)[C@H]3C[C@H](F)C3)c(C(=O)N[C@@H]3CC34CC4)c2C1 (single isomer, unassigned) [Example 484]
IC50: < 1000 nM

Cn1nc(OC(F)F)cc1Nc1nncn1[C@H]1CCc2sc(NC(=O)[C@H]3C[C@H](F)C3)c(C(=O)NC[C@H]3C[C@@H]3F)c2C1 [Example 483, (5S)-5-[3-[[5-(difluoromethoxy)-2-methylpyrazol-3-yl]amino]-1,2,4-triazol-4-yl]-2-[trans-(3-fluorocyclobutanecarbonyl)amino]-N-[[(1R,2S)-2-fluorocyclopropyl]methyl]-4,5,6,7-tetrahydro-1-benzothiophene-3-carboxamide]
IC50: < 1000 nM

Cn1nc(C(F)F)cc1Nc1nncn1[C@H]1CCc2sc(NC(=O)CC(F)F)c(C(=O)NCC3CC3)c2C1 [Example 358, (5S)—N-(cyclopropylmethyl)-5-[3-[[5-(difluoromethyl)-2-methylpyrazol-3-yl]amino]-1,2,4-triazol-4-yl]-2-(3,3-difluoropropanoylamino)-4,5,6,7-tetrahydro-1-benzothiophene-3-carboxamide]
IC50: < 1000 nM

Cn1nc(OC(F)F)cc1Nc1nncn1[C@H]1CCc2sc(NC(=O)[C@H]3CC3(F)F)c(C(=O)NCC3CC3)c2C1 (relative stereo) [Example 345, (5S)—N-(cyclopropylmethyl)-2-[[(1R*)-2,2-difluorocyclopropanecarbonyl]amino]-5-[3-[[5-(difluoromethoxy)-2-methylpyrazol-3-yl]amino]-1,2,4-triazol-4-yl]-4,5,6,7-tetrahydro-1-benzothiophene-3-carboxamide (* or S)]
IC50: < 1000 nM

Cn1nc(OC(F)F)cc1Nc1nncn1[C@H]1CCc2sc(NC(=O)C3CC3)c(C(=O)NC[C@H]3C[C@@H]3F)c2C1 [Example 462, (5S)-2-(cyclopropanecarbonylamino)-5-[3-[[5-(difluoromethoxy)-2-methylpyrazol-3-yl]amino]-1,2,4-triazol-4-yl]-N-[[(1R,2S)-2-fluorocyclopropyl]methyl]-4,5,6,7-tetrahydro-1-benzothiophene-3-carboxamide]
IC50: < 1000 nM

Cn1nc(Cl)cc1Nc1nncn1[C@H]1CCc2sc(NC(=O)C3CC3)c(C(=O)NCC3CC3)c2C1 [Example 305, (5S)-5-[3-[(5-chloro-2-methyl-pyrazol-3-yl)amino]-1,2,4-triazol-4-yl]-2-(cyclopropanecarbonylamino)-N-(cyclopropylmethyl)-4,5,6,7-tetrahydrobenzothiophene-3-carboxamide]
IC50: < 1000 nM

Cn1nc(C(F)(F)F)cc1Nc1nncn1[C@H]1CCc2sc(NC(=O)[C@H]3C[C@H]3F)c(C(=O)NC[C@H]3C[C@@H]3F)c2C1 [Example 395, (5S)-2-[[(1R,2R)-2-fluorocyclopropanecarbonyl]amino]-N-[[(1R,2S)-2-fluorocyclopropyl]methyl]-5-[3-[[2-methyl-5-(trifluoromethyl)pyrazol-3-yl]amino]-1,2,4-triazol-4-yl]-4,5,6,7-tetrahydro-1-benzothiophene-3-carboxamide]
IC50: < 1000 nM

CCOC(=O)c1c(NC(=O)[C@H]2CC23CC3)sc2c1C[C@@H](n1cnnc1Nc1cc(C(F)F)nn1C)CC2 (single isomer, unassigned) [Example 417]
IC50: < 1000 nM

Cn1nc(-c2ncco2)cc1Nc1nncn1[C@H]1CCc2sc(NC(=O)C3CC3)c(C(=O)NCC3CC3)c2C1 [Example 265, (5S)-2-(cyclopropanecarbonylamino)-N-(cyclopropylmethyl)-5-[3-[(2-methyl-5-oxazol-2-yl-pyrazol-3-yl)amino]-1,2,4-triazol-4-yl]-4,5,6,7-tetrahydrobenzothiophene-3-carboxamide]
IC50: < 1000 nM

Cn1nc(OC(F)F)cc1Nc1nncn1[C@H]1CCc2sc(NC(=O)C3CC3)c(C(=O)NCC3CCC3)c2C1 [Example 445, (5S)—N-(cyclobutylmethyl)-2-(cyclopropanecarbonylamino)-5-[3-[[5-(difluoromethoxy)-2-methylpyrazol-3-yl]amino]-1,2,4-triazol-4-yl]-4,5,6,7-tetrahydro-1-benzothiophene-3-carboxamide]
IC50: < 1000 nM

Cc1cc(Nc2nncn2[C@H]2CCc3sc(NC(=O)[C@H]4CC45CC5)c(C(=O)NCC4CC4)c3C2)n(C)n1 (relative stereo) [Example 500, (5S)—N-(cyclopropylmethyl)-5-[3-[(2,5-dimethylpyrazol-3-yl)amino]-1,2,4-triazol-4-yl]-2-[[(2S*)-spiro[2.2]pentane-2-carbonyl]amino]-4,5,6,7-tetrahydrobenzothiophene-3-carboxamide (* or R)]
IC50: < 1000 nM
